Data on three compounds can be found in patent publication US10935541B2 (priority 2014, dated 2021).

Entries after “also recorded” stand apart in the source; their conditions may differ. Read-outs that look alike come from different tables or passages of the source.

Assay [1] has as its system neuromuscular junction. It is filed as cell-based.
Assay [2] has as its system co-cultures of primary rat muscle cells and motoneurons. It is filed as cell-based. The settings on record: for average contraction frequency: co-culture 13 days in vitro, n=10, spontaneous 1.4 Hz; for contractile force (average peak force): mean ± SEM. As for the experimental part:
(§1) Myotube contraction was recorded and characterized via measurement of cantilever deflection using an automated system. In this system, cantilevers supporting co-cultured myotubes and motoneurons were inserted into a transparent culture dish fitted into a modified upright Olympus BX51WI electrophysiology microscope. The culture dish was filled with NBActiv4 medium (+10 mM HEPES) to maintain the cells during the analysis. A heated culture dish system (Delta T, Bioptechs, Butler, Pa.) was incorporated into the stage to maintain the culture at 37° C. throughout the analysis.
The automated system consisted of a Helium Neon laser beam that was automatically scanned across the tips of each cantilever at a 30° angle relative to the plane of the cantilever. A quadrant photo-detector module was also moved to detect the reflected beam. Four stepper motor-driven linear actuators attached to XY translational stages controlled the positions of the laser and photo-detector, with each unit mounted to an XY stage and requiring an actuator for the X and Y translation directions. A temperature-controlled stage was incorporated into the unit to maintain the cells at physiological temperature. Stainless steel electrodes were mounted inside the stage dish at a separation distance of 15 mm. To allow the system to produce field stimulation of myotubes when appropriate, the electrodes were connected to a pulse generator (A-M systems, Sequim, Wash.), which was capable of producing field stimulation pulses of varying intensity, frequency, and waveform.
(§2) Broad field electrical stimulation was first used to verify the contractile ability of the cultured myotubes. Cultures were subjected to a 3 V, 40 ms pulse at a frequency of 1 Hz, and the cantilevers were scanned for 5 seconds each to identify those with active myotubes. Across all experimental conditions, a successful contractile response was taken as any peak equal to or larger than 0.1 V.
(§3) The electrical stimulus was then switched off and the active cantilevers scanned again in order to observe the rate of spontaneous contraction. This condition was followed by bath application of 200 μM glutamate to stimulate motoneuron firing, and the cantilevers were again scanned for evidence of contractile activity. A second application of glutamate was made following addition of 12.5 μM D-tubocurarine (Sigma-Aldrich) to block neuromuscular transmission. The cantilevers were again scanned for contractile activity following this treatment. Finally, cantilevers were subjected to the same broad-field electrical stimulation as was used initially and scanned for contractile activity to verify that the treatments had not destroyed the contractile capability of the myotube or caused the cells to detach.
(§4) Conversion of photo-detector readings to cantilever deflection and myotube force were performed using a modified Stoney's equation (Wilson et al., 2010). Briefly, the photo-detector measured the changes in cantilever bending-induced laser deflection (reported in Volts) from which the deflection of the cantilever tip was calculated. Equations (1) and (2) are restated equations (see, e.g., Wilson et al., 2010) for cantilever tip deflection (δ) and stress produced by the myotube, assuming a uniform thick film the full width of the cantilever (σc). The system parameters used in these equations were the system-specific coefficient relating voltage to laser position on the photo-detector (Cdetector), the angle of the laser and detector relative to the plane of the cantilever (A), the elastic modulus of silicon (ESi), the thicknesses of the cantilever (tSi) and myotube (tf), poison's ratio of silicon (vSi), cantilever length (L), path length of laser from cantilever tip to detector (P), and the width of the cantilever (wsi).
Differences in force per contraction and in contraction frequency were measured for the three conditions: (i) Spontaneous activity, (ii) 200 μM glutamate, and (iii) 12.5 μM D-tubocurarine following glutamate. […]

For assay [3], the system named is myotubes from muscle-only cultures. It counts as cell-based, rat. Here is the method:
Muscle-only control cultures were established in parallel to all co-cultures examined. These cultures were subjected to identical culture parameters minus the plating of ventral horn cells after 7 days in vitro.
as §1, §2, §3, §4
Differences in force per contraction and in contraction frequency were measured for the three conditions: (i) Spontaneous activity, (ii) 200 μM glutamate, and (iii) 12.5 μM D-tubocurarine following glutamate. The differences were evaluated statistically using one-way repeated measures ANOVA (α=0.05) both for the muscle-only controls and for the motoneuron-myotube co-cultures. […]

Assay [4] concerns ventral horn motoneurons. Put plainly: Whole-cell patch-clamp recording of cultured motoneurons, response to glutamate. It is filed as cell-based, rat. From the text:
After 11-13 days in vitro, electrophysiological properties of ventral horn motoneurons were investigated using whole-cell patch-clamp recording techniques. Glass coverslips with cultured ventral horn cells were transferred to a recording chamber located on the stage of a Zeiss Axioscope 2FS Plus upright microscope. Motoneurons were identified visually under an infrared differential interference contrast (DIC) video-microscope. The largest multipolar cells (15-20 μm diameters) with bright somas were identified as motoneurons. Borosilicate glass patch pipettes (BF 150-86-10; Sutter Instrument Company) with a resistance of 6-10 MΩ were made using a Sutter P97 pipette puller (Sutter Instrument Company). Current-clamp and voltage-clamp recordings were made using a Multiclamp 700 A amplifier (Axon instruments). The pipette (intracellular) solution contained 1 mM EGTA, 140 mM K-gluconate, 2 mM MgCl2, 2 mM Na2ATP and 10 mM HEPES (pH 7.2). NBActiv4 medium plus 10 mM HEPES (pH 7.2) was used as the extracellular solution.
After the formation of a giga-ohm seal and membrane puncture, the cell capacitance was compensated. Signals were filtered at 3 kHz and sampled at 20 kHz using a Digidata 1322A interface (Axon Instruments). Data recording and analysis were performed with pClamp8 software (Axon Instruments). Membrane potentials were corrected by subtraction of a 15 mV tip potential, which was calculated using Axon's pClamp8 program. Depolarization-evoked inward and outward currents were examined in voltage-clamp mode. Depolarization-evoked action potentials were examined in current-clamp mode and induced using 1 second depolarizing current injections from a −70 mV holding potential. Action potentials elicited in response to 200 μM glutamate (an excitatory neurotransmitter) (Sigma-Aldrich) injection into the extracellular solution were likewise measured in current-clamp mode from a −70 mV holding potential.
Patch-clamp recordings verified the ability of the co-culture protocol to promote the maturation of electrically-active motoneurons after 11-13 days in culture. […]
Background: The patch-clamp technique gives a direct electrical read-out from membranes.

Take α-Bungarotoxin: in assay [1], the “effect on myotube contractions, stimulation from first chamber (myotube side)” value was “did not inhibit contraction; also recorded: contractions are still possible”; the “effect on myotube contractions, stimulation from second chamber (motoneuron side)” value was “less and less responsive; also recorded: decreased contraction of the myotubes”.
Compound `COc1cc2c3cc1Oc1cc(ccc1O)C[C@@H]1c4c(cc(OC)c(O)c4Oc4ccc(cc4)C[C@@H]3N(C)CC2)CC[N+]1(C)C` [D-tubocurarine] yielded an average contraction frequency in assay [2] (12.5 μM D-tubocurarine with glutamate) of 1.4 Hz. Further, the “contractile force compared with force in response to glutamate” value in assay [2] (12.5 μM D-tubocurarine, co-culture) is “not significantly different”. Moreover, the “contractile force (average peak force)” value in assay [2] (after addition of 12.5 μM D-tubocurarine, co-culture) was 45.1 nN. Besides, in assay [2] (all cases of glutamate increasing contraction frequency by at least 2 Hz), the “effect on glutamate-increased contraction frequency” value is reported as “returned the contraction frequency to spontaneous levels”. The “inhibitory effect on myotube contraction” value in assay [3] (12.5 μM D-tubocurarine, all control cases) was “no inhibitory effect on myotube contraction”. For the same compound, the “contraction frequency compared with frequency in response to glutamate” value in assay [3] (12.5 μM D-tubocurarine, muscle-only controls, p=0.04) is listed as “significant increase in contraction frequency”.
`N[C@@H](CCC(=O)O)C(=O)O` [glutamate]: in assay [2] (200 μM glutamate), the average contraction frequency amounted to 4.9 Hz. Moreover, the “effect on force generated by contracting myotubes” value in assay [2] (glutamate, co-culture, n=10, p=0.60) is “no significant effect”; in assay [3] (glutamate, muscle-only controls, n=7, p=0.24) it was “no effect”. In assay [2] (glutamate-evoked contractions, 200 μM, co-culture, spontaneous 106.0 nN), the “contractile force (average peak force)” value was 67.4 nN. Moreover, the “largest increase in contraction frequency in response to glutamate” value in assay [3] (200 μM glutamate, muscle-only controls) worked out at 0.85 Hz. Besides, the “effect on contraction frequency” value in assay [3] (200 μM glutamate, muscle-only cultures, n=10) was “did not significantly alter contraction frequency”. The “duration of motoneuron activity in response to glutamate” value in assay [4] (200 μM glutamate bath application) was “roughly 2.5 minutes”. Besides, the “response of motoneurons to bath application (membrane depolarization, action potentials)” value in assay [4] (200 μM glutamate, gap-free current-clamp, -70 mV holding potential, n=17) was “depolarization of the membrane and elicited action potentials in all motoneurons examined”. For the same compound, the “response of patched motoneurons to a second application” value in assay [4] (second application of glutamate, n=3) is recorded as “again depolarized the motoneuron membrane in all cells examined”.
